In US10603322B2, “Therapeutic targeting of casein kinase 1δ in breast cancer” (The Scripps Research Institute, priority 2015, dated 2020):

Assays:
MDA-MB-231 TNBC cells = experiment: Cell proliferation / growth assay; assay type: cell-based, human
BCM-4013 PDX tumors = conditions: mouse, in vivo; cited from earlier work
cancer cells = conditions: cited from earlier work

Structure (SMILES): CC(C)(C)c1cc(NC(=O)Nc2ccc(-c3cn4c(n3)sc3cc(OCCN5CCOCC5)ccc34)cc2)no1 [AC220, reference compound]
- anti-proliferative activity (MDA-MB-231 TNBC cells): insensitive

Structure (SMILES): CC(=O)O[C@@]12CO[C@@H]1C[C@H](O)[C@@]1(C)C(=O)[C@H](O)C3=C(C)[C@@H](OC(=O)[C@H](O)[C@@H](NC(=O)OC(C)(C)C)c4ccccc4)C[C@@](O)([C@@H](OC(=O)c4ccccc4)[C@H]21)C3(C)C [docetaxel]
- response of the BCM-4013 model to treatment (BCM-4013 PDX tumors): limited response

Structure (SMILES): Nc1nccc(-c2c(-c3ccc(F)cc3)ncn2C2CCCCC2)n1 [PF670462]
- anti-cancer activity (cancer cells): lacks anti-cancer activity

Structure (SMILES): COc1cc(OC)c(C=C2C(O)=Nc3ccccc32)c(OC)c1 [IC261]
- mode of action (cancer cells; not by inhibition of CK1δ/CK1ε): blocking tubulin function
